We go through nine compounds from patent US9096591B2, “Tetracyclic compounds” (Medivation Technologies, Inc., priority 2007, dated 2015).

Each structure is given as a SMILES string. Read-outs that look alike come from different tables or passages of the source.

The target of experiment [1] is T1, human recombinant histamine H2 receptor (Homo sapiens, UniProt P25021).
T1 construct: expressed in transfected cells; host or cells: CHO-K1 cells
The experiment in a line: Histamine H2 radioligand binding ([125I]Aminopotentidine). The following applies: for inhibition at 0.1 µM: 0.1 μM compound; for inhibition at 0.3 µM: 0.3 μM compound. As to the method: Non-specific binding was estimated in the presence of 3 μM Tiotidine. […] Biochemical assay results are presented as the percent inhibition of specific binding in Table 5.
Non-specific binding was estimated in the presence of 3 μM Tiotidine. […] Compounds were screened at 1 μM, using 1% DMSO as vehicle. Biochemical assay results are presented as the percent inhibition of specific binding in Table 6.

Experiment [2] addresses T2, human recombinant adrenergic α1D receptor (Homo sapiens, UniProt P25100).
T2 construct: expressed in transfected cells; host or cells: HEK-293 cells
T2 sequence (P25100 1-572): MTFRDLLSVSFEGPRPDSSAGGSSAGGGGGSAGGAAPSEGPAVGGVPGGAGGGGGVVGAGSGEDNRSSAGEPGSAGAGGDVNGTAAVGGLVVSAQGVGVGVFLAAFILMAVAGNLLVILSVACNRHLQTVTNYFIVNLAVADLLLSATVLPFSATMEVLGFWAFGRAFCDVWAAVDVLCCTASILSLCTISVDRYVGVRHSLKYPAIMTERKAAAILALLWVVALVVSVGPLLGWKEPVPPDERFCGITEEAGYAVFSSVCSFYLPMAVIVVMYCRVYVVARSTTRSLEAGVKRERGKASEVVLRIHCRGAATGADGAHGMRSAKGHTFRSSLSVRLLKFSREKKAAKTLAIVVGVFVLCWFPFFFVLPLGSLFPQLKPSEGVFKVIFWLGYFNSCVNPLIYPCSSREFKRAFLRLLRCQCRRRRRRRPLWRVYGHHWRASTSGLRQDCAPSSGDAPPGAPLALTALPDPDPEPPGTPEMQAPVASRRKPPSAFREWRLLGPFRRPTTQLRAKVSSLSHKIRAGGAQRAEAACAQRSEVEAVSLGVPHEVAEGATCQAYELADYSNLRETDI
The experiment can be described thus: Adrenergic α1D radioligand binding ([3H]Prozosin). Details: Inhibition of ligand binding, Adren. alpha1D: concentration or dose not given beside the values. The following applies: percent inhibition of specific binding. The method, then: Compounds of invention were incubated with 0.6 nM [^3H]Prozosin for 60 minutes at 25° C. Non-specific binding was estimated in the presence of 10 μM phentolamine. Receptor proteins were filtered and washed, the filters were then counted to determine [^3H]Prozosin specifically bound. […] Biochemical assay results are presented as the percent inhibition of specific binding in Table 6.

Experiment [3] concerns the target T3, human recombinant adrenergic α2A receptor (Homo sapiens, UniProt P08913).
T3 construct: expressed in transfected cells; host or cells: insect Sf9 cells
T3 sequence (P08913 1-465): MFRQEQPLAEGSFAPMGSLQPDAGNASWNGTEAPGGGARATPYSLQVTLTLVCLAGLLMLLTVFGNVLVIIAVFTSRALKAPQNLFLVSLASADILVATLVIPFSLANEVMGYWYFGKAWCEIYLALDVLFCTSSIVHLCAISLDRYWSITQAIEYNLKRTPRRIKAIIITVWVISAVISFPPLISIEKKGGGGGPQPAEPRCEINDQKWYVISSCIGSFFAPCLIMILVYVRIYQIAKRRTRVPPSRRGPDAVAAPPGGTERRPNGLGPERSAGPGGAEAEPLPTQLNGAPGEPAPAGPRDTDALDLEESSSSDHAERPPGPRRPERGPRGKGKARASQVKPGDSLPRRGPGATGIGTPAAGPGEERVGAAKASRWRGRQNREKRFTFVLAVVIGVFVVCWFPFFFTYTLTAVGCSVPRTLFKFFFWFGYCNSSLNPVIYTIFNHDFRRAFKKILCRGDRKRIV
The experiment can be described thus: Adrenergic α2A radioligand binding ([3H]MK-912). Details: Inhibition of ligand binding, Adren. alpha2A: concentration or dose not given beside the values. The settings on record: percent inhibition of specific binding. As to the method: To evaluate in radioligand binding assays the activity of compounds of the invention, human recombinant adrenergic α2A receptor expressed in insect Sf9 cells (Uhlen S et al. J Pharmacol Exp Ther. 271:1558, 1994) in a modified Tris-HCl buffer (50 mM Tris-HCl, pH 7.4, 12.5 mM MgCl2, 2 mM EDTA) was used. Compounds of invention were incubated with 1 nM [^3H]MK-912 for 60 minutes at 25° C. MK912 is (2S-trans)-1,3,4,5′,6,6′,7,12b-octahydro-1′,3′-dimethyl-spiro[2H-benzofuro[2,3-a]quinolizine-2,4′(1′H)-pyrimidin]-2′(3′H)-one hydrochloride Non-specific binding was estimated in the presence of 10 μM WB-4101 (2-(2,6-Dimethoxyphenoxyethyl)aminomethyl-1,4-benzodioxane hydrochloride). Receptor proteins were filtered and washed, the filters were then counted to determine [^3H]MK-912 specifically bound. […] Biochemical assay results are presented as the percent inhibition of specific binding in Table 6.

The target of experiment [4] is T4, human recombinant dopamine D2L receptor (Homo sapiens, UniProt P14416).
T4 construct: expressed in transfected cells; host or cells: CHO cells
The experiment can be described thus: Dopamine D2L radioligand binding ([3H]Spiperone). The settings on record: percent inhibition of specific binding. As to the method: Non-specific binding was estimated in the presence of 10 μM Haloperidol. Receptor proteins were filtered and washed, the filters were then counted to determine [^3H]Spiperone specifically bound. […] Biochemical assay results are presented as the percent inhibition of specific binding in Table 6.

The mark [5] stands for this setting: 0.1 nM [125I]Aminopotentidine, read-out: Histamine Binding H2, percent inhibition of specific binding.
Setting [6] is: 1 μM compound, 0.1 nM [125I]Aminopotentidine, read-out: Histamine Binding H2, percent inhibition of specific binding.
Where [7] appears, read: percent inhibition of specific binding, screened at 1 μM, read-out: Inhibition of ligand binding, Hist. H2.

T1 sequence (P25021 whole entry): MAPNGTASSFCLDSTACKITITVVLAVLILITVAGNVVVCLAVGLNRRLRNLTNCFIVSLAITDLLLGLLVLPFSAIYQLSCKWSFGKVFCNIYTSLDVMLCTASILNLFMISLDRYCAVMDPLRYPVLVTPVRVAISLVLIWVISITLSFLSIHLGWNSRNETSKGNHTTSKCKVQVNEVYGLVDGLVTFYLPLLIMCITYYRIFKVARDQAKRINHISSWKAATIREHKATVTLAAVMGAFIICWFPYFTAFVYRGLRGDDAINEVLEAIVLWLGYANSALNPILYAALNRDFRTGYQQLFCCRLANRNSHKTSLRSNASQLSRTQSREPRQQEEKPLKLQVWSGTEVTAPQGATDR
T4 sequence (P14416 whole entry): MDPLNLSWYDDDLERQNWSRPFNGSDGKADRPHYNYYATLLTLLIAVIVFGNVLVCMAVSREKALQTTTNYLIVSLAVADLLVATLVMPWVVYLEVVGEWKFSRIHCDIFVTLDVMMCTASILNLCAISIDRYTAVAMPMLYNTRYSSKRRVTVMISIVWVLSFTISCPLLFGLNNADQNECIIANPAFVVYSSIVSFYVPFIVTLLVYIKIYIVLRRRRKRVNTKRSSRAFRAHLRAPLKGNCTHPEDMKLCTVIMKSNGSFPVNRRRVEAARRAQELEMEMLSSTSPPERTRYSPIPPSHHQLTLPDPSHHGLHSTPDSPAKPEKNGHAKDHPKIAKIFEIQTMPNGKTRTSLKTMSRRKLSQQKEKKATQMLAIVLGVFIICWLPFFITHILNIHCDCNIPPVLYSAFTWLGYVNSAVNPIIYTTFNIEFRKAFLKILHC

Take `Cc1ccc2c(c1)c1c(n2CCc2ccccc2)CCN(C)C1` [Compound 20, 2,3,4,5-tetrahydro-2,8-dimethyl-5-phenethyl-1H-pyrido[4,3-b]indole]: in experiment [1] (setting [5]), the inhibition at 0.1 µM was found to be 33% and the inhibition at 0.3 µM is 51%. Further, the inhibition at 1 µM in experiment [1] (setting [6]) worked out at 72%. The inhibition at 1 µM in experiment [1] (setting [7]) was determined as 87%. Also, the “Inhibition of ligand binding, Adren. alpha1D” value (“Inhibition … Adren. alpha1D” below) in experiment [2] came to 94%. For the same compound, in experiment [3], the “Inhibition of ligand binding, Adren. alpha2A” value (shortened to “Inhibition … Adren. alpha2A”) is reported as 98%. Further, the “Inhibition of ligand binding, Dop. D2L” value in experiment [4] turned out to be 87%.
Consider `Cc1ccc2c(c1)c1c(n2CCc2ccccn2)CCN(C)C1` [Compound 21, 2,3,4,5-tetrahydro-2,8-dimethyl-5-(2-(pyridin-2-yl)ethyl)-1H-pyrido[4,3-b]indole], for which the inhibition at 1 µM in experiment [1] (setting [6]) and in experiment [1] (setting [7]) was 45% each time. Also, in experiment [2], the “Inhibition … Adren. alpha1D” value is recorded as 76%.
Turning to `Cc1ccc(CCn2c3c(c4cc(C)ccc42)CN(C)CC3)cc1` [Compound 25, 2,3,4,5-tetrahydro-2,8-dimethyl-5-(4-methylphenethyl)-1H-pyrido[4,3-b]indole], in experiment [1] (setting [5]), the inhibition at 0.1 µM was found to be 54% and the inhibition at 0.3 µM amounted to 75%. In addition, the inhibition at 1 µM in experiment [1] (setting [6]) is 96%. In addition, the inhibition at 1 µM in experiment [1] (setting [7]) turned out to be 96%. For the same compound, in experiment [3], the “Inhibition … Adren. alpha2A” value stood at 99%. For the same compound, the “Inhibition of ligand binding, Dop. D2L” value in experiment [4] came out at 94%.
Take `CCN1CCc2c(c3cc(C)ccc3n2CCc2ccncc2)C1` [Compound 27, 2-ethyl-2,3,4,5-tetrahydro-8-methyl-5-(2-(pyridin-4-yl)ethyl)-1H-pyrido[4,3-b]indole]: the inhibition at 1 µM in experiment [1] (setting [6]) and in experiment [1] (setting [7]) was 32% throughout. Also, in experiment [2], the “Inhibition … Adren. alpha1D” value is on record as 63%. The “Inhibition … Adren. alpha2A” value in experiment [3] is reported as 53%.
On to `Cc1ccc2c(c1)c1c(n2CCc2ccc(C)nc2)CCNC1` [Compound 230, 2,3,4,5-tetrahydro-8-methyl-5-(2-(6-methylpyridin-3-yl)ethyl)-1H-pyrido[4,3-b]indole], for which the inhibition at 1 µM in experiment [1] (setting [6]) stood at 6%; in experiment [1] (setting [7]), 30%. In addition, the “Inhibition … Adren. alpha1D” value in experiment [2] is 75%. Besides, in experiment [3], the “Inhibition … Adren. alpha2A” value is 56%.
For the compound `CN1CCc2c(c3cc(Cl)ccc3n2CC(=O)N2CCCCC2)C1` [Compound 236, 2-(8-chloro-1,2,3,4-tetrahydro-2-methylpyrido[4,3-b]indol-5-yl)-1-(piperidin-1-yl)ethanone], the inhibition at 1 µM in experiment [1] (setting [6]) and in experiment [1] (setting [7]) was 17% each time. Moreover, in experiment [2], the “Inhibition … Adren. alpha1D” value is reported as 10%. Also, in experiment [3], the “Inhibition … Adren. alpha2A” value was 0%. The “Inhibition of ligand binding, Dop. D2L” value in experiment [4] is given as 1%.
In the case of `CC1CCN(C(=O)Cn2c3c(c4cc(Cl)ccc42)CN(C)CC3)CC1` [Compound 237, 2-(8-chloro-1,2,3,4-tetrahydro-2-methylpyrido[4,3-b]indol-5-yl)-1-(4-methylpiperidin-1-yl)ethanone], the inhibition at 1 µM in experiment [1] (setting [6]) and in experiment [1] (setting [7]) was 24% each time. Besides, the “Inhibition … Adren. alpha1D” value in experiment [2] is 14%. In experiment [3], the “Inhibition … Adren. alpha2A” value was 26%. For the same compound, the “Inhibition of ligand binding, Dop. D2L” value in experiment [4] was −1%.
For the compound `CN1CCc2c(c3cc(Cl)ccc3n2CC(=O)N2CCOCC2)C1` [Compound 238, 2-(8-chloro-1,2,3,4-tetrahydro-2-methylpyrido[4,3-b]indol-5-yl)-1-morpholinoethanone], the inhibition at 1 µM in experiment [1] (setting [6]) and in experiment [1] (setting [7]) was 6% in each case. Also, the “Inhibition … Adren. alpha1D” value in experiment [2] was determined as 2%. Moreover, in experiment [3], the “Inhibition … Adren. alpha2A” value is recorded as −13%. For the same compound, the “Inhibition of ligand binding, Dop. D2L” value in experiment [4] is given as −1%.
`CN1CCc2c(c3cc(Cl)ccc3n2CC(=O)N2CCSCC2)C1` [Compound 239, 2-(8-chloro-1,2,3,4-tetrahydro-2-methylpyrido[4,3-b]indol-5-yl)-1-thiomorpholinoethanone]: the inhibition at 1 µM in experiment [1] (setting [6]) and in experiment [1] (setting [7]) was 10% each time. Besides, in experiment [2], the “Inhibition … Adren. alpha1D” value turned out to be 3%. Moreover, the “Inhibition … Adren. alpha2A” value in experiment [3] is 0%. The “Inhibition of ligand binding, Dop. D2L” value in experiment [4] is on record as −1%.
